Where two headings read alike, the source gives them in different places.
Tests used:
[1] = tested on: Ba/F3 cells transfected to express Bcr-Abl Wild-type p210+IL-3; experiment: cells; conditions: Mus musculus, BaF3, read-out: Proliferation IC50
[2] = tested on: Ba/F3 cells transfected to express Bcr-Abl Wild-type p210; experiment: cells; conditions: Mus musculus, BaF3, read-out: Proliferation IC50
[3] = tested on: Ba/F3 cells transfected to express Bcr-Abl M237I (p185); experiment: cells; conditions: Mus musculus, BaF3, read-out: Proliferation IC50
[4] = tested on: imatinib-resistant BCR-ABL mutants; conditions: number of mutants / mutants tested; Table 1
T315I mutant = conditions: Table 1
[5] = tested on: Ba/F3 cells transfected to express Bcr-Abl L248V (p185); experiment: cells; conditions: Mus musculus, BaF3, read-out: Proliferation IC50
[6] = tested on: Ba/F3 cells transfected to express Bcr-Abl G250A (p185); experiment: cells; conditions: Mus musculus, BaF3, read-out: Proliferation IC50
[7] = tested on: Ba/F3 cells transfected to express Bcr-Abl G250E (p185); experiment: cells; conditions: Mus musculus, BaF3, read-out: Proliferation IC50
[8] = tested on: Ba/F3 cells transfected to express Bcr-Abl G250V (p185); experiment: cells; conditions: Mus musculus, BaF3, read-out: Proliferation IC50
[9] = tested on: Ba/F3 cells transfected to express Bcr-Abl Y253H (p185); experiment: cells; conditions: Mus musculus, BaF3, read-out: Proliferation IC50
[10] = tested on: Ba/F3 cells transfected to express Bcr-Abl E255D (p185); experiment: cells; conditions: Mus musculus, BaF3, read-out: Proliferation IC50
[11] = tested on: Ba/F3 cells transfected to express Bcr-Abl E255K (p185); experiment: cells; conditions: Mus musculus, BaF3, read-out: Proliferation IC50
[12] = tested on: Ba/F3 cells transfected to express Bcr-Abl E255K (p210); experiment: cells; conditions: Mus musculus, BaF3, read-out: Proliferation IC50
[13] = tested on: Ba/F3 cells transfected to express Bcr-Abl E255V (p210); experiment: cells; conditions: Mus musculus, BaF3, read-out: Proliferation IC50
[14] = tested on: Ba/F3 cells transfected to express Bcr-Abl E275K (p185); experiment: cells; conditions: Mus musculus, BaF3, read-out: Proliferation IC50
[15] = tested on: Ba/F3 cells transfected to express Bcr-Abl E281K (p185); experiment: cells; conditions: Mus musculus, BaF3, read-out: Proliferation IC50
[16] = tested on: Ba/F3 cells transfected to express Bcr-Abl K285N (p185); experiment: cells; conditions: Mus musculus, BaF3, read-out: Proliferation IC50
[17] = tested on: Ba/F3 cells transfected to express Bcr-Abl E292K (p210); experiment: cells; conditions: Mus musculus, BaF3, read-out: Proliferation IC50
[18] = tested on: Ba/F3 cells transfected to express Bcr-Abl F311V (p185); experiment: cells; conditions: Mus musculus, BaF3, read-out: Proliferation IC50
[19] = tested on: Ba/F3 cells transfected to express Bcr-Abl T315I (p210); experiment: cells; conditions: Mus musculus, BaF3, read-out: Proliferation IC50
[20] = tested on: Ba/F3 cells transfected to express Bcr-Abl F317C (p185); experiment: cells; conditions: Mus musculus, BaF3, read-out: Proliferation IC50
[21] = tested on: Ba/F3 cells transfected to express Bcr-Abl F317L (p210); experiment: cells; conditions: Mus musculus, BaF3, read-out: Proliferation IC50
[22] = tested on: Ba/F3 cells transfected to express Bcr-Abl F317V (p185); experiment: cells; conditions: Mus musculus, BaF3, read-out: Proliferation IC50
[23] = tested on: Ba/F3 cells transfected to express Bcr-Abl E355A (p185); experiment: cells; conditions: Mus musculus, BaF3, read-out: Proliferation IC50
[24] = tested on: Ba/F3 cells transfected to express Bcr-Abl E355G (p185); experiment: cells; conditions: Mus musculus, BaF3, read-out: Proliferation IC50
[25] = tested on: Ba/F3 cells transfected to express Bcr-Abl F359C (p185); experiment: cells; conditions: Mus musculus, BaF3, read-out: Proliferation IC50
[26] = tested on: Ba/F3 cells transfected to express Bcr-Abl F359V (p185); experiment: cells; conditions: Mus musculus, BaF3, read-out: Proliferation IC50
[27] = tested on: Ba/F3 cells transfected to express Bcr-Abl A380S (p185); experiment: cells; conditions: Mus musculus, BaF3, read-out: Proliferation IC50
[28] = tested on: Ba/F3 cells transfected to express Bcr-Abl L387F (p185); experiment: cells; conditions: Mus musculus, BaF3, read-out: Proliferation IC50
[29] = tested on: Ba/F3 cells transfected to express Bcr-Abl M388L (p185); experiment: cells; conditions: Mus musculus, BaF3, read-out: Proliferation IC50
[30] = tested on: Ba/F3 cells transfected to express Bcr-Abl F486S (p210); experiment: cells; conditions: Mus musculus, BaF3, read-out: Proliferation IC50
KBM5 = tested on: KBM5; set-up: method as in Golemovic et al, 2005; conditions: KBM5 cell line; ref Golemovic et al, 2005; cited from earlier work
KBM7 = tested on: KBM7; set-up: method as in Golemovic et al, 2005; conditions: KBM7 cell line; ref Golemovic et al, 2005; cited from earlier work
[31] = set-up: method as in Kantarjian et al, 2006; conditions: patients receiving 400 mg b.i.d.; ref Kantarjian et al, 2006; cited from earlier work
[32] = tested on: imatinib-resistant CML mouse models; set-up: method as in Weisberg et al, 2005; conditions: ref Weisberg et al, 2005; cited from earlier work
[33] = tested on: imatinib-resistant CML patients and Ph+ ALL patients; conditions: cited from earlier work; for CML patients who have responded: early-phase clinical findings
[34] = tested on: mice injected with BCR-ABL-transformed haematopoietic cell lines or primary marrow cells; conditions: ref Weisberg et al, 2005; cited from earlier work
[35] = tested on: newly diagnosed patients in the chronic phase of CML; conditions: cited from earlier work; for annual rate of progression (resulting in death): IRIS study
[36] = accelerated phase CML patients, ref Kantarjian et al, 2006
[37] = blast-phase CML patients, ref Kantarjian et al, 2006
[38] = chronic phase CML patients, ref Kantarjian et al, 2006
[39] = newly diagnosed chronic-phase patients, ref Simonsson, 2005

Cc1cn(-c2cc(NC(=O)c3ccc(C)c(Nc4nccc(-c5cccnc5)n4)c3)cc(C(F)(F)F)c2)cn1 [AMN107]
IC50 [1]: > 10000 nM | IC50 [2]: 25 ± 1 nM | IC50 [3]: 43 ± 8.7 nM | imatinib-resistant BCR-ABL mutants against which activity is maintained [4]: 32/33 | activity against the T315I mutant (T315I mutant): no significant activity | IC50 [5]: 102 ± 13 nM | IC50 [6]: 65 ± 5.6 nM | IC50 [7]: 145 ± 32 nM | IC50 [8]: 19 ± 1.4 nM | IC50 [9]: 700 ± 116 nM | IC50 [10]: 27 ± 3.1 nM | IC50 [11]: 308 ± 42 nM | IC50 [12]: 548 ± 72 nM | IC50 [13]: 791 ± 67 nM | IC50 [14]: 44 ± 17.1 nM | IC50 [15]: 40 ± 9.8 nM | IC50 [16]: 57 ± 12 nM | IC50 [17]: 81 ± 8 nM | IC50 [18]: 155 ± 31 nM | IC50 [19]: > 10000 nM | IC50 [20]: 20 ± 3.1 nM | IC50 [21]: 91 ± 6.5 nM | IC50 [22]: 28 ± 4 nM | IC50 [23]: 35 ± 6.7 nM | IC50 [24]: 47 ± 8 nM | IC50 [25]: 258 ± 61 nM | IC50 [26]: 161 ± 61 nM | IC50 [27]: 164 ± 27 nM | IC50 [28]: 46 ± 7.2 nM | IC50 [29]: 18 ± 2.6 nM | IC50 [30]: 75 ± 7 nM | times more potent than imatinib (KBM5): 43 times | times more potent than imatinib (KBM7): 60 times | apparent half-life [31]: 15 h | mean peak plasma level [31]: 3.6 µM | mean trough plasma level [31]: 1.7 µM | survival [32]: prolong survival | maximum tolerated dose ([33]; Phase I, 50–1200 mg day−1 for up to 385 days, ref Kantarjian et al, 2006): 600 mg b.i.d. | cytogenetic responses [33, 36]: 48% | haematological responses [33, 36]: 72% | cytogenetic responses [33, 37]: 27% | haematological responses [33, 37]: 39% | cytogenetic responses [33, 38]: 53% | haematological responses [33, 38]: 92% | CML patients who have responded ([33]; early, chronic-phase patients): over 90% | imatinib-resistant Ph+ ALL patients who responded ([33]; of 13 Ph+ ALL patients, ref Kantarjian et al, 2006): Two | CML patients who have responded ([33]; patients with advanced disease): Greater than 70% | survival of mice [34]: prolong the survival

Cc1ccc(NC(=O)c2ccc(CN3CCN(C)CC3)cc2)cc1Nc1nccc(-c2cccnc2)n1 [Imatinib]
annual rate of progression (resulting in death) ([35]; after 1 year of therapy): 3.4% | annual rate of progression (resulting in death) ([35]; after 2 years of therapy): 7.5% | annual rate of progression (resulting in death) ([35]; after 3 years of therapy): 4.8% | annual rate of progression (resulting in death) ([35]; after 4 years of therapy): 1.5% | complete cytogenetic responses [35, 39]: 86% | complete haematologic remissions [35, 39]: 98%

— PMC2361347 (British Journal of Cancer, 2006)
